Data as given in patent US20260374766A1, “METHODS FOR TREATING CANCER” (Antares Therapeutics, Inc., priority 2022, published 2026).
Like-named read-outs stand apart in the source and are kept apart here.

Key:
NUGC3 p53 Y220C = experiment: Cell Proliferation Assay (CellTiter-Glo, CTG), NUGC3 p53 Y220C; format: cell-based; details: Homo sapiens, NUGC-3, 120 h, NUGC3 cells, 5 days, CellTiter-Glo
Method in brief: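 Tet-One inducible p53 Y220C or R273H constructs were stably introduced into NCI-H1299 by lentiviral transduction; NUGC3 was used as is. Cells (250-500 per well) were exposed to compound for 5 days, then CellTiter-Glo was added for 10 min at room temperature and IC50 was calculated from luminescence.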

H1299 p53 R273H = experiment: Cell Proliferation Assay (CellTiter-Glo, CTG), H1299 p53 R273H (NClH1299-inducible p53 R273H); format: cell-based; details: Homo sapiens, NCI-H1299, 120 h, NClH1299-inducible p53 R273H cells, 5 days, CellTiter-Glo
Method in brief: (§1)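 NClH1299 lines stably transduced with Tet-inducible p53 Y220C or R273H, plus NUGC3, were treated with compound for 5 days at 250-500 cells/well. IC50 derived from CellTiter-Glo luminescent signal after 10 min room-temperature incubation.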

[1] = biological target: T1, p53 Y220C mutant protein (amino acid residues 94-293) (Homo sapiens, UniProt P04637, Y220C); experiment: Surface Plasmon Resonance (SPR) assay, Kd_kinetic; format: binding; details: read-out: SPR P53 Y220C KD kinetic
T1 construct: p53 Y220C mutant protein (amino acid residues 94-293)
Method in brief: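 Biacore 8K SPR; 16 or 20 °C; Tris 50 mM pH 7.5, NaCl 100 mM, DTT 1 mM, Brij35 0.01%, Tween-20 0.05%, DMSO 1%. Kd_kinetic by 1:1 fit.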

H1299 p53 Y220C = experiment: Cell Proliferation Assay (CellTiter-Glo, CTG), H1299 p53 Y220C (NClH1299-inducible p53 Y220C); format: cell-based; details: Homo sapiens, NCI-H1299, 120 h, NClH1299-inducible p53 Y220C cells, 5 days, CellTiter-Glo
Method in brief: as §1

p53 Y220C = p53 Y220C (Homo sapiens, UniProt P04637, Y220C); experiment: Luciferase Reporter Assay (Luc), p53 response element, NClH1299 cells with inducible p53 Y220C; format: cell-based; details: luciferase reporter, NClH1299 inducible p53 Y220C, 6 hour; for AC50: read-out: Luc P53 Y220C AC50
Method in brief: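 Luciferase activity is measured directly after One-Glo addition and a 5-minute room-temperature shake. Before that, cells plated at 5,000 per well receive doxycycline at 0.5 ug/mL for 24 hours, followed by compound for 6 hours.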

T1 sequence (P04637 94-293, stated change not applied): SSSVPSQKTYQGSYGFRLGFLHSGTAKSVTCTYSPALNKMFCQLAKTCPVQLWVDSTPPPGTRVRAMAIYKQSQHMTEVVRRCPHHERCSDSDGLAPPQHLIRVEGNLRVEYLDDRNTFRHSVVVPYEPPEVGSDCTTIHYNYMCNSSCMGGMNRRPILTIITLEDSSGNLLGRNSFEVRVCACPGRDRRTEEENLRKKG

| SMILES | IC50 (NUGC3 p53 Y220C) [nM] | IC50 (H1299 p53 R273H) [nM] | Kd [1] [nM] | IC50 (H1299 p53 Y220C) [nM] | AC50 (p53 Y220C) [nM] | Emax (p53 Y220C) [%] | Kd ([1]; SPR, p53 Y220C) [nM] |
| --- | --- | --- | --- | --- | --- | --- | --- |
| CN1CC[C@H](Nc2cccn3c(SC(F)(F)F)c(C#CCNc4ccc(P(C)(C)=O)c5scnc45)cc23)[C@H](F)C1 [Example 389, 7-(dimethylphosphoryl)-N-[3-(8-{[(3R,4S)-3-fluoro-1-methylpiperidin-4-yl]amino}-3-[(trifluoromethyl)sulfanyl]indolizin-2-yl)prop-2-yn-1-yl]-1,3-benzothiazol-4-amine; formic acid] | < 750 | 8000 to 10000 | < 10 | < 750 | < 750 | > 90 | – |
| COc1nc(P(C)(C)=O)ccc1NCC#Cc1cc2c(N[C@@H]3CCN(C)C[C@@H]3F)cccn2c1SC(F)(F)F [Example 390] | < 750 | 5000 to 8000 | – | < 750 | < 750 | > 90 | < 10 |
| O=C(N[C@H]1C[C@@H](O)C1)c1ccc(NCC#Cc2cc3c(N[C@@H]4CCNC[C@@H]4F)cccn3c2SC(F)(F)F)cc1 [Example 391] | < 750 | ≥ 10000 | – | < 750 | < 750 | 80 to 90 | < 10 |
| CNC(=O)c1ccc(NCC#Cc2cc3c(N[C@@H]4CNC[C@@H]4F)cccn3c2SC(F)(F)F)c(OC)c1 [Example 392] | < 750 | ≥ 10000 | – | < 750 | < 750 | 80 to 90 | < 10 |
| CNC(=O)c1ccc(OC)c(NCC#Cc2cn3c(N[C@@H]4CCN(C)C[C@@H]4F)cccc3c2SC(F)(F)F)c1 [Example 393] | < 750 | 5000 to 8000 | – | < 750 | < 750 | > 90 | < 10 |
| COc1cc(S(C)(=O)=O)ccc1NCC#Cc1cc2c(N[C@@H]3CCNC[C@@H]3F)cccn2c1SC(F)F [Example 394] | < 750 | 5000 to 8000 | – | < 750 | < 750 | > 90 | < 10 |
| CN1CC[C@@H](Nc2cccn3c(SC(F)(F)F)c(C#CCNc4ccc(C(=O)N5CC(C)(O)C5)cc4)cc23)[C@@H](F)C1 [Example 395] | < 750 | 5000 to 8000 | – | < 750 | < 750 | > 90 | < 10 |
| C[C@H](NC(=O)c1ccc(NCC#Cc2cc3c(N[C@@H]4CCN(C)C[C@@H]4F)cccn3c2SC(F)(F)F)cc1)[C@@H](C)O [Example 396] | < 750 | 8000 to 10000 | – | < 750 | < 750 | > 90 | < 10 |
| C[C@@H](O)CNC(=O)c1ccc(NCC#Cc2cc3c(N[C@@H]4CCNC[C@@H]4F)cccn3c2SC(F)(F)F)cc1 [Example 397] | < 750 | 5000 to 8000 | – | < 750 | < 750 | > 90 | < 10 |
| COc1cc2c(cc1NCC#Cc1cc3c(N[C@@H]4CCN(C)C[C@@H]4F)cccn3c1SC(F)(F)F)CNC2=O [Example 399] | < 750 | 5000 to 8000 | – | < 750 | < 750 | > 90 | < 10 |
| COc1cc(P(C)(C)=O)cnc1NCC#Cc1cc2c(N[C@@H]3CCN(C)C[C@@H]3F)cccn2c1SC(F)(F)F [Example 402, 2-(3-{[5-(dimethylphosphoryl)-3-methoxypyridin-2-yl]amino}prop-1-yn-1-yl)-N-[(3S,4R)-3-fluoro-1-methylpiperidin-4-yl]-3-[(trifluoromethyl)sulfanyl]indolizin-8-amine] | < 750 | ≥ 10000 | – | < 750 | < 750 | 80 to 90 | < 10 |
| C[C@H](O)CNC(=O)c1ccc(NCC#Cc2cc3c(N[C@@H]4CCNC[C@@H]4F)cccn3c2SC(F)(F)F)cc1 [Example 403] | < 750 | ≥ 10000 | – | < 750 | < 750 | > 90 | < 10 |
| COc1ccc(C(=O)NC[C@H](C)O)cc1NCC#Cc1cc2c(N[C@@H]3CCN(C)C[C@@H]3F)cccn2c1SC(F)(F)F [Example 404] | < 750 | 8000 to 10000 | – | < 750 | < 750 | > 90 | < 10 |
| CNC(=O)c1ccc(NCC#Cc2cc3c(N[C@@H]4CCN(C)C[C@@H]4F)cccn3c2SC(F)(F)F)c(OC2COC2)c1 [Example 405] | < 750 | ≥ 10000 | – | < 750 | < 750 | > 90 | < 10 |
| COc1cc(C(=O)N2CC(C)(O)C2)ccc1NCC#Cc1cc2c(N[C@@H]3CCNC[C@@H]3F)cccn2c1SC(F)(F)F [Example 406, 1-(4-{[3-(8-{[(3S,4R)-3-fluoropiperidin-4-yl]amino}-3-[(trifluoromethyl)sulfanyl]indolizin-2-yl)prop-2-yn-1-yl]amino}-3-methoxybenzoyl)-3-methylazetidin-3-ol] | < 750 | 5000 to 8000 | – | < 750 | < 750 | 80 to 90 | < 10 |
| CN1CC[C@@H](Nc2cccn3c(SC(F)(F)F)c(C#CCNc4ccc(C(=O)NC[C@H]5COCCO5)cc4)cc23)[C@@H](F)C1 [Example 407] | < 750 | 5000 to 8000 | – | < 750 | < 750 | > 90 | < 10 |
| COc1cc(C(=O)NCC(C)(C)O)ccc1NCC#Cc1cc2c(N[C@@H]3CCNC[C@@H]3F)cccn2c1SC(F)(F)F [Example 408] | < 750 | 5000 to 8000 | – | < 750 | < 750 | 80 to 90 | < 10 |
| CN1CC[C@@H](Nc2cccn3c(SC(F)(F)F)c(C#CCNc4cc(C(=O)NCC5(O)CC5)ccc4OC4COC4)cc23)[C@@H](F)C1 [Example 409] | < 750 | ≥ 10000 | – | < 750 | < 750 | > 90 | < 10 |
| COc1ccc(C(=O)N[C@@H](C)[C@@H](C)O)cc1NCC#Cc1cc2c(N[C@@H]3CCN(C)C[C@@H]3F)cccn2c1SC(F)(F)F [Example 410] | < 750 | ≥ 10000 | – | < 750 | < 750 | > 90 | < 10 |
| COc1cc([S@+](C)[O-])ccc1NCC#Cc1cc2c(N[C@@H]3CCN(C)C[C@@H]3F)cccn2c1SC(F)(F)F [Example 411] | < 750 | ≥ 10000 | – | < 750 | < 750 | > 90 | < 10 |
| C[C@@H](O)CNC(=O)c1ccc(NCC#Cc2cc3c(N[C@@H]4CCN(C)C[C@@H]4F)cccn3c2SC(F)(F)F)cc1 [Example 414] | < 750 | ≥ 10000 | – | < 750 | < 750 | > 90 | < 10 |
